# According to ChEMBL document CHEMBL4396888, “Design and Synthesis of Potent, Selective Inhibitors of Protein Arginine Methyltransferase 4 against Acute Myeloid Leukemia” (J Med Chem, 2019):
# Activity calls are given as the source filed them. The rule behind the calls is not given here.
# Experiments:
# K562 = assay: Antiproliferative activity against human K562 cells measured after 6 days by CCK8/SRB assay; assay type: functional, cell-based
# [1] = Half life in ICR mouse at 3 mg/kg, iv by mass spectrometric analysis; assay type: ADME, organism-based; conditions: in vivo
# [2] = molecular target: Histone-lysine N-methyltransferase SETD2 (Homo sapiens) (UniProt Q9BYW2); assay: Inhibition of SETD2 (unknown origin) up to 50 uM
# MV4-11 = assay: Antiproliferative activity against human MV4-11 cells measured after 6 days by CCK8/SRB assay; assay type: functional, cell-based
# [3] = molecular target: Protein arginine N-methyltransferase 3 (Homo sapiens, UniProt O60678); assay: Inhibition of PRMT3 (unknown origin) preincubated for 15 mins followed by substrate addition and measured after 60 mins by AlphaLisa assay
# Mus musculus [4] = assay: In vivo inhibition of PRMT4 in nude BALB/c mouse xenografted with human MOLM13 cells assessed as reduction in BAF155 dimethylation at 100 mg/kg, po administered daily for 18 days measured 6 hrs post-last dose by Western blot analysis; assay type: functional, organism-based
# [5] = Half life in ICR mouse at 10 mg/kg, po administered via gavage by mass spectrometric analysis; assay type: ADME, organism-based; conditions: in vivo
# [6] = Selectivity ratio of IC50 for antiproliferative activity against human MOLM13 cells to IC50 for inhibition of PRMT4 in human MOLM13 cells assessed as reduction in BAF155 dimethylation
# [7] = Drug level in ICR mouse plasma at 10 mg/kg, po administered via gavage measured after 0.25 to 24 hrs by mass spectrometric analysis; assay type: ADME, organism-based; conditions: in vivo
# MOLT-4 = assay: Antiproliferative activity against human MOLT4 cells measured after 6 days by CCK8/SRB assay; assay type: functional, cell-based
# MOLM-13 [8] = assay: Cell cycle arrest in human MOLM13 cells assessed as increase in accumulation at G0/G1-phase measured after 72 hrs by propidium iodide staining-based flow cytometry; assay type: functional
# [9] = molecular target: Histone-lysine N-methyltransferase SMYD3 (Homo sapiens) (UniProt Q9H7B4); assay: Inhibition of SMYD3 (unknown origin) up to 50 uM preincubated for 15 mins followed by substrate addition and measured after 60 mins by AlphaLisa assay
# [10] = molecular target: Histone-lysine N-methyltransferase EHMT2 (Homo sapiens) (UniProt Q96KQ7); assay: Inhibition of G9a (unknown origin) up to 50 uM preincubated for 15 mins followed by substrate addition and measured after 60 mins by AlphaLisa assay
# [11] = molecular target: T1, Histone-arginine methyltransferase CARM1 (Homo sapiens, UniProt Q86X55); assay: Inhibition of PRMT4 in human MOLM13 cells assessed as reduction in PABP1 dimethylation measured after 96 hrs by Western blotting analysis; assay type: cell-based
# T1 sequence (Q86X55 whole entry): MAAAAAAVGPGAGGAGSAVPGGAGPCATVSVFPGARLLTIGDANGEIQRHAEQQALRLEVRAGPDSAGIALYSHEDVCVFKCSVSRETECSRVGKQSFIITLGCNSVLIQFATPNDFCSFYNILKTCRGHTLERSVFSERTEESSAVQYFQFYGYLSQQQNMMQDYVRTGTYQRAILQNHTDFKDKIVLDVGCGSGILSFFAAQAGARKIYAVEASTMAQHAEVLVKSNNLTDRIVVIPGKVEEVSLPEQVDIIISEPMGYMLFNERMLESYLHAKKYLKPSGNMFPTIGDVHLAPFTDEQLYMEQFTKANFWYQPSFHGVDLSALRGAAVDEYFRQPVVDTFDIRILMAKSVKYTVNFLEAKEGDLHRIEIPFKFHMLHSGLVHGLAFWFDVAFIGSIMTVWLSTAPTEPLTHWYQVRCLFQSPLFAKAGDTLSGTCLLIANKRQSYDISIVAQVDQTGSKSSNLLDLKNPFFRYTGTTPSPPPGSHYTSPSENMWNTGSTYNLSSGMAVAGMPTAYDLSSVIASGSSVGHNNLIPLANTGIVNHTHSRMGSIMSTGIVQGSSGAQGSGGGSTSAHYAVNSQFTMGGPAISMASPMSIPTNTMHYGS
# [12] = molecular target: T1, Histone-arginine methyltransferase CARM1; assay: Inhibition of PRMT4 (unknown origin) using histone H3 (21 to 44 residues) as substrate measured after 60 mins in presence of SAM by AlphaLisa assay
# Mus musculus [13] = assay: In vivo inhibition of PRMT4 in nude BALB/c mouse xenografted with human MOLM13 cells assessed as reduction in PABP1 dimethylation at 100 mg/kg, po administered daily for 18 days measured 6 hrs post-last dose by Western blot analysis; assay type: functional, organism-based
# [14] = Clearance in ICR mouse at 3 mg/kg, iv by mass spectrometric analysis; assay type: ADME, organism-based; conditions: in vivo
# [15] = molecular target: Histone-lysine N-methyltransferase 2A (Homo sapiens) (UniProt Q03164); assay: Inhibition of MLL1 (unknown origin) up to 50 uM preincubated for 10 mins followed by peptide substrate addition and measured after 4 hrs in presence of SAM by HTRF assay
# MONO-MAC-6 = assay: Antiproliferative activity against human MONO-MAC-6 cells measured after 6 days by CCK8/SRB assay; assay type: functional, cell-based
# MOLM-13 [16] = assay: Antitumor activity against human MOLM13 cells xenografted in BALB/c nude mouse assessed as tumor growth inhibition at 100 mg/kg, po administered daily for 18 days measured 2 to 3 times a week by caliper method relative to control; assay type: functional; conditions: MOLM-13, po, 432 h, read-out: TGI
# THP-1 = assay: Antiproliferative activity against human THP1 cells measured after 6 days by CCK8/SRB assay; assay type: functional, cell-based
# [17] = Cmax in ICR mouse at 10 mg/kg, po administered via gavage by mass spectrometric analysis; assay type: ADME, organism-based; design: dose 10 mg/kg, route oral; conditions: in vivo
# MOLM-13 [18] = assay: Antiproliferative activity against human MOLM13 cells measured after 6 days by CCK8/SRB assay; conditions: MOLM-13, 144 h
# [19] = Selectivity ratio of IC50 for antiproliferative activity against human MOLM13 cells to IC50 for inhibition of PRMT4 in human MOLM13 cells assessed as reduction in PABP1 dimethylation
# Mus musculus [20] = assay: In vivo inhibition of PRMT4 in nude BALB/c mouse xenografted with human MOLM13 cells assessed as reduction in asymmetric dimethyl arginine level at 100 mg/kg, po administered daily for 18 days measured 6 hrs post-last dose by Western blot analysis; assay type: functional, organism-based
# MOLM-13 [21] = assay: Induction of apoptosis in human MOLM13 cells assessed as total apoptotic cells at 12 uM measured after 96 hrs by Annexin V-FITC/propidium iodide staining-based flow cytometry relative to control; assay type: functional
# [22] = Volume of distribution at steady state in ICR mouse at 3 mg/kg, iv by mass spectrometric analysis; assay type: ADME, organism-based; conditions: in vivo, read-out: Vdss
# [23] = Tmax in ICR mouse at 10 mg/kg, po administered via gavage by mass spectrometric analysis; assay type: ADME, organism-based; conditions: in vivo
# [24] = Toxicity in nude BALB/c mouse xenografted with human MOLM13 cells assessed as body weight loss at 100 mg/kg, po administered daily for 18 days measured 2 to 3 times a week during compound dosing; assay type: organism-based; conditions: in vivo, 432 h
# [25] = molecular target: Protein arginine N-methyltransferase 5 (Homo sapiens, UniProt O14744); assay: Inhibition of PRMT5 (unknown origin) preincubated for 15 mins followed by substrate addition and measured after 60 mins by AlphaLisa assay
# Histone-lysine N-methyltransferase 2A (Homo sapiens), sequence (Q03164 1-2718 limits assumed): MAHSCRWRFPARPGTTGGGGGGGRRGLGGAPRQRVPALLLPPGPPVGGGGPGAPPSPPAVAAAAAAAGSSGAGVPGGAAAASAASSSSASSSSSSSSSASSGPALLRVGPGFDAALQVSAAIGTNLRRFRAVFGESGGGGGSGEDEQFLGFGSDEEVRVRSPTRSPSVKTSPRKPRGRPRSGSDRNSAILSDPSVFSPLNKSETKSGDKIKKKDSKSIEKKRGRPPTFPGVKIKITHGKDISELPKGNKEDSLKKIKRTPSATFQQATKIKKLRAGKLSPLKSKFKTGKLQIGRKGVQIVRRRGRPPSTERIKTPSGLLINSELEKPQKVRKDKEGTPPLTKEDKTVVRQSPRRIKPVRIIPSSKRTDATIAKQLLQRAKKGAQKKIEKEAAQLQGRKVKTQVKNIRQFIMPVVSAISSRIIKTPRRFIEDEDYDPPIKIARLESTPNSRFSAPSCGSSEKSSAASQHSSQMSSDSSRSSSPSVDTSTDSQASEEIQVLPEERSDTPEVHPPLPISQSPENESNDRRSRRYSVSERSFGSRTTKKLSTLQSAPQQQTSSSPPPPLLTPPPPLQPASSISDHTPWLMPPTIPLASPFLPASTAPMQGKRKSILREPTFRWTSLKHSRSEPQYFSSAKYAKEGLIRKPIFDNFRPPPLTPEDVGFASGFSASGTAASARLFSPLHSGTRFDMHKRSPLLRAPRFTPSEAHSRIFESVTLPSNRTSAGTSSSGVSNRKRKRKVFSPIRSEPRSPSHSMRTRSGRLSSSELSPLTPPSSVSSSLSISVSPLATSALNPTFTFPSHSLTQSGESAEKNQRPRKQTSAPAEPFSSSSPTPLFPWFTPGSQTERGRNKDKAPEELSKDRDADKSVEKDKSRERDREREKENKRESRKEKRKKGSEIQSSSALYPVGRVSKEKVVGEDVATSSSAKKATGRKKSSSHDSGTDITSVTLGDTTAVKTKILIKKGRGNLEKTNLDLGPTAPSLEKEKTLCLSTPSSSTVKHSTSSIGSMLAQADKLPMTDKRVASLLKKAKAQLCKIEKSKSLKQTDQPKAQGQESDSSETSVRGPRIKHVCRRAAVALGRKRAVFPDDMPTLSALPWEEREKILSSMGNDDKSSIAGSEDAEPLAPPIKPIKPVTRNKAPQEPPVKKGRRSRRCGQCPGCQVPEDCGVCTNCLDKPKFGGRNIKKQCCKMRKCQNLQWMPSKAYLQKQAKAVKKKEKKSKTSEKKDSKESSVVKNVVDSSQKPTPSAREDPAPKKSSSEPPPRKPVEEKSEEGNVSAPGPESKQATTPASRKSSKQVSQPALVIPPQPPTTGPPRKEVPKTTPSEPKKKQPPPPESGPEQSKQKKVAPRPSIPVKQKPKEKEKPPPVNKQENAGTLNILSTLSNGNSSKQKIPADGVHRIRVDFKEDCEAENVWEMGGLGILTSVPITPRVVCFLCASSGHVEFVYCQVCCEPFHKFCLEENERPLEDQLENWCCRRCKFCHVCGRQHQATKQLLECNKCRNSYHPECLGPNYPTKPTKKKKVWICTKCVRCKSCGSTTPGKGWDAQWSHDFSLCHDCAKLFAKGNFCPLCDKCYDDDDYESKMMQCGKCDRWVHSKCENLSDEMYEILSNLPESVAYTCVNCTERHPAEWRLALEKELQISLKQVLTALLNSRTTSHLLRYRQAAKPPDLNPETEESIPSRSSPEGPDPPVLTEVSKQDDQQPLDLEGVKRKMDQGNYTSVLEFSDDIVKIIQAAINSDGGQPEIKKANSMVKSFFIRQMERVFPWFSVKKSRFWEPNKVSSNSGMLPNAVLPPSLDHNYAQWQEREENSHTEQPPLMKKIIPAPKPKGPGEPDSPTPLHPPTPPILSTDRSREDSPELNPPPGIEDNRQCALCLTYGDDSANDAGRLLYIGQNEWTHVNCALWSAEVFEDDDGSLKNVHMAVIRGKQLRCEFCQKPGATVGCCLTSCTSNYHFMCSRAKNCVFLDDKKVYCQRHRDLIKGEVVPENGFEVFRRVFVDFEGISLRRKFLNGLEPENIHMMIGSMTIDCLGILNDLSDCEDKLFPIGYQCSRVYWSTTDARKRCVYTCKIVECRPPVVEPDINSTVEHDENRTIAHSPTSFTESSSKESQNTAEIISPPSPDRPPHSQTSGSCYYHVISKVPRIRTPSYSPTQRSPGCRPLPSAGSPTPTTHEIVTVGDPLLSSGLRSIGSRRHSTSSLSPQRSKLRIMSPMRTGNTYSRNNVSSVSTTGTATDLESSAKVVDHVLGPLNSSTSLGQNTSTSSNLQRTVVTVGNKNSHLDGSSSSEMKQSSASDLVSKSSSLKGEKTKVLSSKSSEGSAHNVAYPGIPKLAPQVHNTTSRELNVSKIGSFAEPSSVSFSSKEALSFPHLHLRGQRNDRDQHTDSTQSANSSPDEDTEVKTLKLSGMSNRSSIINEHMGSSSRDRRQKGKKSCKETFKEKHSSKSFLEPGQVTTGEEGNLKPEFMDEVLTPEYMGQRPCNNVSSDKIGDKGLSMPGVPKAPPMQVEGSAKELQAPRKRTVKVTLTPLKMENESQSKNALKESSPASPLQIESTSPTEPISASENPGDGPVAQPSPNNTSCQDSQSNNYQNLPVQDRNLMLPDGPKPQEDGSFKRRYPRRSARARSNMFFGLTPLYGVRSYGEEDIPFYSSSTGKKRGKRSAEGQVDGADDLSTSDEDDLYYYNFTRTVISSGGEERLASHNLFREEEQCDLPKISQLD
# Histone-lysine N-methyltransferase 2A (Homo sapiens), sequence (Q03164 2719-3969 limits assumed): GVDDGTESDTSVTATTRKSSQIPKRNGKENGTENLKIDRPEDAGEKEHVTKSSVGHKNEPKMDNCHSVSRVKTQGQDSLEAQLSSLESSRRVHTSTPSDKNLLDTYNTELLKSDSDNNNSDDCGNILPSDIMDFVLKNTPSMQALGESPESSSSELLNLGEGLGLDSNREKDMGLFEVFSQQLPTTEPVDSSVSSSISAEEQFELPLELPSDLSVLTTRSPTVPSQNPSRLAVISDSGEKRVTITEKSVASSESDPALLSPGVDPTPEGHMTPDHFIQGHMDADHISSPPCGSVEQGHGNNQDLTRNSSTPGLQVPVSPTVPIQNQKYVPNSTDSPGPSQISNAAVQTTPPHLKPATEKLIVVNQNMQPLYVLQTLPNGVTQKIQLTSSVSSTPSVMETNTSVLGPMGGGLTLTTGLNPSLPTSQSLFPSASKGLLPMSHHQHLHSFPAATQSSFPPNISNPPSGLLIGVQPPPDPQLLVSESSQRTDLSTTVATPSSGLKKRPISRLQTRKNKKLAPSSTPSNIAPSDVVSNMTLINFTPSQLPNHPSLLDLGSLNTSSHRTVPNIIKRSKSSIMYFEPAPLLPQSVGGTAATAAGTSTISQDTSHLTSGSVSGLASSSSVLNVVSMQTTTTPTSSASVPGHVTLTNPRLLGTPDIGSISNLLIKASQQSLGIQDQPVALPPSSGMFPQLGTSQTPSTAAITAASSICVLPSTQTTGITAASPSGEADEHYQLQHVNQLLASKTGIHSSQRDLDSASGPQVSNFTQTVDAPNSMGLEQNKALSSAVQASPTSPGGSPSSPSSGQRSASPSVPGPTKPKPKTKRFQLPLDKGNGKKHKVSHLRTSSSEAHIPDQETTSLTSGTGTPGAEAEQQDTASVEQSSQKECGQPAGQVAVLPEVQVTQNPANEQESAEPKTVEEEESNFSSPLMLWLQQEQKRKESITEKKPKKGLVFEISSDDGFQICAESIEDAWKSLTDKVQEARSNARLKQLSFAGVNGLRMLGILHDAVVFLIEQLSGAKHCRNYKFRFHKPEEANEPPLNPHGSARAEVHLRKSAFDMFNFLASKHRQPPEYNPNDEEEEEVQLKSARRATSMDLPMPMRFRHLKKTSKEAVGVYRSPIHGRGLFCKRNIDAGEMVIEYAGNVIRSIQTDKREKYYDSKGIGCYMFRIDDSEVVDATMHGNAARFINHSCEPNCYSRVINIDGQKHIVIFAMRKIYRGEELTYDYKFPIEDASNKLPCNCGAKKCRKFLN
# Protein arginine N-methyltransferase 3, sequence (O60678 whole entry): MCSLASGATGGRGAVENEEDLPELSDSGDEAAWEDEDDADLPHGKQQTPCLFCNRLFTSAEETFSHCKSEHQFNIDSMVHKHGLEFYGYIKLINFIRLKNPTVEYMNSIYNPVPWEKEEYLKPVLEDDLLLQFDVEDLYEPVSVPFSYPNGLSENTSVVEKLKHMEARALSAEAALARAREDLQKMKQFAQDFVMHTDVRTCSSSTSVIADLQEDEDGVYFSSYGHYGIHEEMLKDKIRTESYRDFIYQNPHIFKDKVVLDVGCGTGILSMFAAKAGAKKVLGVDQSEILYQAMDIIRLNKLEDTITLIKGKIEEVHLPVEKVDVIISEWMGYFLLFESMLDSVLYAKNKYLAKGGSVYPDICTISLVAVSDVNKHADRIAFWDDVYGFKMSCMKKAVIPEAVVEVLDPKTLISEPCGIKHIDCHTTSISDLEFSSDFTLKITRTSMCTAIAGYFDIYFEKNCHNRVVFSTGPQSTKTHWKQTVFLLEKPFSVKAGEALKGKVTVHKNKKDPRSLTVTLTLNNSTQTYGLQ
# Histone-lysine N-methyltransferase SMYD3 (Homo sapiens), sequence (Q9H7B4 whole entry): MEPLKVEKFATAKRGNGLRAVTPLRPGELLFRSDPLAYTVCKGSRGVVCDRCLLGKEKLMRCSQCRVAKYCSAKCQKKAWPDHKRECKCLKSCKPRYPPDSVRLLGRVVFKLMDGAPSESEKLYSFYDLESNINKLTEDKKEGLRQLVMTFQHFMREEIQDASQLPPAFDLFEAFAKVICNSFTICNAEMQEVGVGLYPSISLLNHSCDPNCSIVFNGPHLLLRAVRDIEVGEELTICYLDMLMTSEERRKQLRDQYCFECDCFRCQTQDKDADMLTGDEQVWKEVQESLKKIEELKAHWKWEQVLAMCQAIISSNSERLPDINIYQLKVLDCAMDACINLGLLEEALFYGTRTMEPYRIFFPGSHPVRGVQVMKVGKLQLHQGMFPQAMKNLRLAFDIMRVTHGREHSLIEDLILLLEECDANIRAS
compound,measurement,setting,value
CNC[C@@H](O)CN1CCc2c(cccc2OCc2ccc(-c3nccs3)cc2)C1,Activity,K562,Dose-dependent effect
same,half-life,[1],12.1 h
same,inhibition,[2],inactive
same,Activity,MV4-11,Dose-dependent effect
same,IC50,[3],> 10 µM
same,inhibition,Mus musculus [4],Active
same,half-life,[5],24.1 h
same,Ratio IC50,[6],10
same,concentration,[7],120 nM
same,Activity,MOLT-4,Dose-dependent effect
same,Activity,MOLM-13 [8],Dose-dependent effect
same,inhibition,[9],inactive
same,inhibition,[10],inactive
same,IC50,[11],0.545 µM
same,IC50,[12],0.021 µM
same,inhibition,Mus musculus [13],Active
same,clearance,[14],44.9 mL/min/kg
same,inhibition,[15],inactive
same,Activity,MONO-MAC-6,Dose-dependent effect
same,inhibition in vivo at 100 mg/kg,MOLM-13 [16],53.5%
same,Activity,THP-1,Dose-dependent effect
same,Cmax,[17],75.4 ng/mL
same,IC50,MOLM-13 [18],6.93 µM
same,Ratio IC50,[19],10
same,inhibition,Mus musculus [20],Active
same,Activity,MOLM-13 [21],96.4%
same,Vd,[22],42.6 L/kg
same,Tmax,[23],8 h
same,Activity,[24],Non-Toxic
same,IC50,[25],> 30 µM
